From US20260027116A1, “Methods of Treating Chronic Graft-Versus-Host Disease Following Allogeneic Hematopoietic Stem Cell Transplantation” (Kadmon Corporation, LLC, priority 2022, published 2026)

System: lung function
Experiment: Example 1: percent predicted HGB corrected DLco change from baseline
Assay type: in vivo, human
Conditions: mean (SD)
Text: Change From Baseline in Percent Predicted Hemoglobin (HGB) Corrected Diffusing Capacity of Lung for Carbon Monoxide (DLco) at Each Specified Time Points. DLco is a measurement of the ability of the lungs to transfer gases from the air to the blood. Change from baseline in diffusing capacity of the lung for carbon monoxide (percent predicted hemoglobin level corrected) was reported for this measure. Baseline value was defined as valid and last non-missing value obtained within 28 days prior to participant receiving first study medication. EOT visit was performed within 3 days after the participant's last dose of study drug. […] Analysis was performed on mITT population. Here, ‘number analyzed’=participants with available data for each specified category. Here, ‘O’ in the number analyzed field signifies that none of the participants were available for the analysis at the specified time points.

`CC(C)NC(=O)COc1cccc(-c2nc(Nc3ccc4[nH]ncc4c3)c3ccccc3n2)c1` [Belumosudil, 2-{3-[4-(1H-indazol-5-ylamino)-2-quinazolinyl]phenoxy}-N-(propan-2-yl) acetamide] was tested, and the “Change From Baseline in Percent Predicted Hemoglobin (HGB) Corrected Diffusing Capacity of Lung for Carbon Monoxide (DLco)” value (Cohort 1: 200 mg QD, Cycle 37, Day 1) was 9.306 (—) Percent Predicted HGB Corrected DLco, the “Change From Baseline in Percent Predicted Hemoglobin (HGB) Corrected Diffusing Capacity of Lung for Carbon Monoxide (DLco)” value (Cohort 1: 200 mg QD, Cycle 39, Day 1) was 14.754 (0.649) Percent Predicted HGB Corrected DLco and the “Change From Baseline in Percent Predicted Hemoglobin (HGB) Corrected Diffusing Capacity of Lung for Carbon Monoxide (DLco)” value (Cohort 1: 200 mg QD, Cycle 40, Day 1) was 5.586 (—) Percent Predicted HGB Corrected DLco. The “Change From Baseline in Percent Predicted Hemoglobin (HGB) Corrected Diffusing Capacity of Lung for Carbon Monoxide (DLco)” value (Cohort 1: 200 mg QD, Cycle 41, Day 1) was 22.884 (—) Percent Predicted HGB Corrected DLco, the “Change From Baseline in Percent Predicted Hemoglobin (HGB) Corrected Diffusing Capacity of Lung for Carbon Monoxide (DLco)” value (Cohort 1: 200 mg QD, Cycle 43, Day 1) was 15.213 (—) Percent Predicted HGB Corrected DLco and the “Change From Baseline in Percent Predicted Hemoglobin (HGB) Corrected Diffusing Capacity of Lung for Carbon Monoxide (DLco)” value (Cohort 1: 200 mg QD, Cycle 49, Day 1) was −3.599 (—) Percent Predicted HGB Corrected DLco. The “Change From Baseline in Percent Predicted Hemoglobin (HGB) Corrected Diffusing Capacity of Lung for Carbon Monoxide (DLco)” value (Cohort 1: 200 mg QD, Cycle 51, Day 1) was 11.734 (—) Percent Predicted HGB Corrected DLco, the “Change From Baseline in Percent Predicted Hemoglobin (HGB) Corrected Diffusing Capacity of Lung for Carbon Monoxide (DLco)” value (Cohort 1: 200 mg QD, Cycle 53, Day 1) was 10.292 (—) Percent Predicted HGB Corrected DLco and the “Change From Baseline in Percent Predicted Hemoglobin (HGB) Corrected Diffusing Capacity of Lung for Carbon Monoxide (DLco)” value (Cohort 1: 200 mg QD, Cycle 55, Day 1) was 16.550 (—) Percent Predicted HGB Corrected DLco. For the same molecule, the “Change From Baseline in Percent Predicted Hemoglobin (HGB) Corrected Diffusing Capacity of Lung for Carbon Monoxide (DLco)” value (Cohort 1: 200 mg QD, Cycle 61, Day 1) was 17.682 (—) Percent Predicted HGB Corrected DLco, the “Change From Baseline in Percent Predicted Hemoglobin (HGB) Corrected Diffusing Capacity of Lung for Carbon Monoxide (DLco)” value (Cohort 1: 200 mg QD, Cycle 62, Day 1) was 4.170 (—) Percent Predicted HGB Corrected DLco and the “Change From Baseline in Percent Predicted Hemoglobin (HGB) Corrected Diffusing Capacity of Lung for Carbon Monoxide (DLco)” value (Cohort 1: 200 mg QD, Cycle 63, Day 1) was 26.215 (—) Percent Predicted HGB Corrected DLco. The “Change From Baseline in Percent Predicted Hemoglobin (HGB) Corrected Diffusing Capacity of Lung for Carbon Monoxide (DLco)” value (Cohort 1: 200 mg QD, Cycle 67, Day 1) was 41.384 (—) Percent Predicted HGB Corrected DLco, the “Change From Baseline in Percent Predicted Hemoglobin (HGB) Corrected Diffusing Capacity of Lung for Carbon Monoxide (DLco)” value (Cohort 1: 200 mg QD, EOT) was −1.962 (11.426) Percent Predicted HGB Corrected DLco and the “Change From Baseline in Percent Predicted Hemoglobin (HGB) Corrected Diffusing Capacity of Lung for Carbon Monoxide (DLco)” value (Cohort 2: 200 mg BID, Cycle 3, Day 1) was −0.638 (7.059) Percent Predicted HGB Corrected DLco. For the same molecule, the “Change From Baseline in Percent Predicted Hemoglobin (HGB) Corrected Diffusing Capacity of Lung for Carbon Monoxide (DLco)” value (Cohort 2: 200 mg BID, Cycle 5, Day 1) was −4.462 (23.621) Percent Predicted HGB Corrected DLco, the “Change From Baseline in Percent Predicted Hemoglobin (HGB) Corrected Diffusing Capacity of Lung for Carbon Monoxide (DLco)” value (Cohort 2: 200 mg BID, Cycle 7, Day 1) was 6.184 (9.436) Percent Predicted HGB Corrected DLco and the “Change From Baseline in Percent Predicted Hemoglobin (HGB) Corrected Diffusing Capacity of Lung for Carbon Monoxide (DLco)” value (Cohort 2: 200 mg BID, Cycle 8, Day 1) was 3.554 (—) Percent Predicted HGB Corrected DLco. The “Change From Baseline in Percent Predicted Hemoglobin (HGB) Corrected Diffusing Capacity of Lung for Carbon Monoxide (DLco)” value (Cohort 2: 200 mg BID, Cycle 9, Day 1) was 2.570 (8.902) Percent Predicted HGB Corrected DLco, the “Change From Baseline in Percent Predicted Hemoglobin (HGB) Corrected Diffusing Capacity of Lung for Carbon Monoxide (DLco)” value (Cohort 2: 200 mg BID, Cycle 10, Day 1) was 4.343 (3.144) Percent Predicted HGB Corrected DLco and the “Change From Baseline in Percent Predicted Hemoglobin (HGB) Corrected Diffusing Capacity of Lung for Carbon Monoxide (DLco)” value (Cohort 2: 200 mg BID, Cycle 11, Day 1) was 6.582 (10.695) Percent Predicted HGB Corrected DLco. For the same molecule, the “Change From Baseline in Percent Predicted Hemoglobin (HGB) Corrected Diffusing Capacity of Lung for Carbon Monoxide (DLco)” value (Cohort 2: 200 mg BID, Cycle 12, Day 1) was 4.076 (—) Percent Predicted HGB Corrected DLco, the “Change From Baseline in Percent Predicted Hemoglobin (HGB) Corrected Diffusing Capacity of Lung for Carbon Monoxide (DLco)” value (Cohort 2: 200 mg BID, Cycle 13, Day 1) was 1.882 (7.522) Percent Predicted HGB Corrected DLco and the “Change From Baseline in Percent Predicted Hemoglobin (HGB) Corrected Diffusing Capacity of Lung for Carbon Monoxide (DLco)” value (Cohort 2: 200 mg BID, Cycle 14, Day 1) was 0.358 (—) Percent Predicted HGB Corrected DLco. The “Change From Baseline in Percent Predicted Hemoglobin (HGB) Corrected Diffusing Capacity of Lung for Carbon Monoxide (DLco)” value (Cohort 2: 200 mg BID, Cycle 15, Day 1) was 1.125 (5.927) Percent Predicted HGB Corrected DLco, the “Change From Baseline in Percent Predicted Hemoglobin (HGB) Corrected Diffusing Capacity of Lung for Carbon Monoxide (DLco)” value (Cohort 2: 200 mg BID, Cycle 16, Day 1) was −6.618 (15.443) Percent Predicted HGB Corrected DLco and the “Change From Baseline in Percent Predicted Hemoglobin (HGB) Corrected Diffusing Capacity of Lung for Carbon Monoxide (DLco)” value (Cohort 2: 200 mg BID, Cycle 17, Day 1) was 8.458 (6.229) Percent Predicted HGB Corrected DLco.
